What was measured:
Format in all cases: cell-based
[1] = molecular target: T1, EGFR WT (Ba/F3 cells) (Homo sapiens, UniProt P00533); experiment: Inhibitor activity on EGFR-dependent cell growth (CellTiter-Glo, 72 h), Ba/F3 EGFR WT; conditions: read-out: BaF3 WT IC50
T1 construct: expressed in transfected cells; host or cells: Ba/F3 (murine pro-B cells), retroviral transduction, puromycin selection, maintained with EGF
Outline: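 This growth assay used Ba/F3 cells that depend on wild-type EGFR and are kept in EGF without IL3. Compounds were made up as 10 mM DMSO stocks and diluted 3-fold over 10 points. 120 nL went onto 600 cells/well. After 72 hours, 40 μL CellTiter-Glo was added and luminescence read on EnVision after 30 min.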

[2] = molecular target: T2, EGFR exon 20 ASV Ins V769_D770 (Ba/F3 cells) (Homo sapiens, UniProt P00533, INS769ASV); experiment: Inhibitor activity on EGFR-dependent cell growth (CellTiter-Glo, 72 h), Ba/F3 EGFR exon 20 ASV Ins; conditions: read-out: BaF3 ASV IC50
T2 construct: expressed in transfected cells; host or cells: Ba/F3 (murine pro-B cells), retroviral transduction, puromycin selection, IL3-independent pool
T2 sequence (P00533 with tags, fused parts or gaps INS769ASV): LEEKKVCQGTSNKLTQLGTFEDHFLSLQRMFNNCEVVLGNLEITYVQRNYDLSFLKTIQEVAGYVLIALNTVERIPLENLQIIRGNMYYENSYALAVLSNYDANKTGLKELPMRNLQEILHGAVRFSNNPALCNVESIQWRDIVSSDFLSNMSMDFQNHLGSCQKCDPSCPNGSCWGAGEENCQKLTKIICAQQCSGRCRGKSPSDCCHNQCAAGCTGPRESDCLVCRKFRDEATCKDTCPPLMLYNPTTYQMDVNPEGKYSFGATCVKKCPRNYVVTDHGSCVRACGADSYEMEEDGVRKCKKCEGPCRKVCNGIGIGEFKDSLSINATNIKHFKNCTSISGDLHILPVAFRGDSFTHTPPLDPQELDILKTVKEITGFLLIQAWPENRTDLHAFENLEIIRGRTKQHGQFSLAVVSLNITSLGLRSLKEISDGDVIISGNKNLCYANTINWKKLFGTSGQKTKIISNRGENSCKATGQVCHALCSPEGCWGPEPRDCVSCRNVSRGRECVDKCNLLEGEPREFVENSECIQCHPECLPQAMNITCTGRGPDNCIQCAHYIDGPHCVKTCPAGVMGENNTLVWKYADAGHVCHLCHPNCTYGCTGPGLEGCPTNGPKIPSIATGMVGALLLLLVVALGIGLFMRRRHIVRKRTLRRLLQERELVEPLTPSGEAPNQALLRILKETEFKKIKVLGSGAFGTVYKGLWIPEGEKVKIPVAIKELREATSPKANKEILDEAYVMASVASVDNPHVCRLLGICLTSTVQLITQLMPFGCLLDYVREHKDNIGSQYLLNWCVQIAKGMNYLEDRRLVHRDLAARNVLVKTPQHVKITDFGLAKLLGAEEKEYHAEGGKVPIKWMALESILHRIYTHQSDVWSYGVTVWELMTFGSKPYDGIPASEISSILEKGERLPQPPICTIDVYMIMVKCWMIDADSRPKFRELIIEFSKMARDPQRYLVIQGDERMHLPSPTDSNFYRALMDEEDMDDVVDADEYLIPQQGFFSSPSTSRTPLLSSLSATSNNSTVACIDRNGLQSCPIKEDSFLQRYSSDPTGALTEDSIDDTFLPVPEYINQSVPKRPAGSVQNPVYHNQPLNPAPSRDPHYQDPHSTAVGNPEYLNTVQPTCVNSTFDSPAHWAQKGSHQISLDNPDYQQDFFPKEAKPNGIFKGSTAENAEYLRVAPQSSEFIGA
Outline: (§1)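 IC50s derive from a sigmoidal dose–response fit of CellTiter-Glo signal. The signal was normalised between […]-treated cells and cell-free medium. Ba/F3 mutant-EGFR cells, seeded at 400–800/well depending on the line, had 72 h of exposure to a 10-point, 3-fold compound series.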

[3] = molecular target: T3, EGFR exon 20 SVD Ins D770_N771 (Ba/F3 cells) (Homo sapiens, UniProt P00533, INS770SVD); experiment: Inhibitor activity on EGFR-dependent cell growth (CellTiter-Glo, 72 h), Ba/F3 EGFR exon 20 SVD Ins; conditions: read-out: BaF3 SVD IC50
T3 construct: expressed in transfected cells; host or cells: Ba/F3 (murine pro-B cells), retroviral transduction, puromycin selection, IL3-independent pool
T3 sequence (P00533 with tags, fused parts or gaps INS770SVD): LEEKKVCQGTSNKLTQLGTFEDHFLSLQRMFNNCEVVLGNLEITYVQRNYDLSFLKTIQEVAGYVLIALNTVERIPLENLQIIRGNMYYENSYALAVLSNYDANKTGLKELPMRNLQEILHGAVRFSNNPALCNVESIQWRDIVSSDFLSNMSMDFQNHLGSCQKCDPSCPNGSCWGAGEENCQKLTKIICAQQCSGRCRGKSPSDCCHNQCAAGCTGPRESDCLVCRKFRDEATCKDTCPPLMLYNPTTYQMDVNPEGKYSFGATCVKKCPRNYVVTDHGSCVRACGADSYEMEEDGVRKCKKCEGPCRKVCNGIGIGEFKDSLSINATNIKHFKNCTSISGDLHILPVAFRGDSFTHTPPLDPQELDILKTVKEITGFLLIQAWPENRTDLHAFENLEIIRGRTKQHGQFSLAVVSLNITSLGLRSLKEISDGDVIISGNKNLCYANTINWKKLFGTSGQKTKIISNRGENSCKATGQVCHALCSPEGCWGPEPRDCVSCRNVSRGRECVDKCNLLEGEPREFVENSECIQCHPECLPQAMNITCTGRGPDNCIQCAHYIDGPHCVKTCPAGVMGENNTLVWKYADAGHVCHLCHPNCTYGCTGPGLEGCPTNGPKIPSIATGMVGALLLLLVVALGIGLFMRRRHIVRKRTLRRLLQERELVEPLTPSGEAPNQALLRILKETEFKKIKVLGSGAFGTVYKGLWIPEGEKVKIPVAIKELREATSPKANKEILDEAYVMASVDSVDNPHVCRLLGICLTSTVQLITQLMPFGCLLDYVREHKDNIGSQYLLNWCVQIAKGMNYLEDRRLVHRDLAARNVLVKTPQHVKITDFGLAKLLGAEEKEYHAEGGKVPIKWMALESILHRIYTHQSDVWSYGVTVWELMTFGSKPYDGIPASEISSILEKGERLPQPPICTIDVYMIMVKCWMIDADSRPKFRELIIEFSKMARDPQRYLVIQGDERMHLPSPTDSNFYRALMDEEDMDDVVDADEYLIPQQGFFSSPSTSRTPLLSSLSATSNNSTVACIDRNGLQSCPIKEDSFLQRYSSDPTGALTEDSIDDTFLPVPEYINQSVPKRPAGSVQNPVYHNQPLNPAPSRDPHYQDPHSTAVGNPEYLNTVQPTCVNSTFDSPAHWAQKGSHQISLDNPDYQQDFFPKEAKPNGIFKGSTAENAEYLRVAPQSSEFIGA
Outline: as §1

[4] = molecular target: T4, EGFR exon 20 FQEA Ins A763_V764 (Ba/F3 cells) (Homo sapiens, UniProt P00533, INS763FQEA); experiment: Inhibitor activity on EGFR-dependent cell growth (CellTiter-Glo, 72 h), Ba/F3 EGFR exon 20 FQEA Ins; conditions: read-out: BaF3 FQEA IC50
T4 construct: expressed in transfected cells; host or cells: Ba/F3 (murine pro-B cells), retroviral transduction, puromycin selection, IL3-independent pool
T4 sequence (P00533 with tags, fused parts or gaps INS763FQEA): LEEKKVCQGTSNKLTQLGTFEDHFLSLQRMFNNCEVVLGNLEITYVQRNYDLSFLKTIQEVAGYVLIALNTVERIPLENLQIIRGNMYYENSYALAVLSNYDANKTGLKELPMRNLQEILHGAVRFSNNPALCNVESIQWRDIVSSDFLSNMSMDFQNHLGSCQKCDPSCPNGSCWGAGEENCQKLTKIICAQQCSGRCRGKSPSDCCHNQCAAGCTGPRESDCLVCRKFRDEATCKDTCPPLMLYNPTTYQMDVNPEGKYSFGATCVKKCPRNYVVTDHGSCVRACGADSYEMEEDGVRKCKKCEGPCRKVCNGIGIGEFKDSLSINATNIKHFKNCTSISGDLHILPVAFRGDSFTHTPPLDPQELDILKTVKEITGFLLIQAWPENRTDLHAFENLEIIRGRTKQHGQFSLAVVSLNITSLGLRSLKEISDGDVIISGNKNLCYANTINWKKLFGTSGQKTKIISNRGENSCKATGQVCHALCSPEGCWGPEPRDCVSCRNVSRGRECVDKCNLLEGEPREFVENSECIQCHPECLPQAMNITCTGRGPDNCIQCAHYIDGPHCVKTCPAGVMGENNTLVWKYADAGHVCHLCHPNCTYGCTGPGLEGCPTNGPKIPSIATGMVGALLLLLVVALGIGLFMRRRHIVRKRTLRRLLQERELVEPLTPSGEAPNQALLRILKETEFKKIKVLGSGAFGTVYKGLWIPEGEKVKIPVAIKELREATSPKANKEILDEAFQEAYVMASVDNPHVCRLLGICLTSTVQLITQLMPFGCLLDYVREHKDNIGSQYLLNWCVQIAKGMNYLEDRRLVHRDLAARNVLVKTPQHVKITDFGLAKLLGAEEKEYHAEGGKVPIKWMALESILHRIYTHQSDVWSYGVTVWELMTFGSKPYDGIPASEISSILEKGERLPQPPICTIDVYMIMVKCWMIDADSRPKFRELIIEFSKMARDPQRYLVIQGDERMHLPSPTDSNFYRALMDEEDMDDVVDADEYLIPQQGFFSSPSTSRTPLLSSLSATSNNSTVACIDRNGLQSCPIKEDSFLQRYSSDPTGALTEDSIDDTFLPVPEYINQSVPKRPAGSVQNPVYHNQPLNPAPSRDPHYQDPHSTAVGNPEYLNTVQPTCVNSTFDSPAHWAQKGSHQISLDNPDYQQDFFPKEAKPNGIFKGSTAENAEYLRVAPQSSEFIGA
Outline: as §1

T1 sequence (P00533 25-1210): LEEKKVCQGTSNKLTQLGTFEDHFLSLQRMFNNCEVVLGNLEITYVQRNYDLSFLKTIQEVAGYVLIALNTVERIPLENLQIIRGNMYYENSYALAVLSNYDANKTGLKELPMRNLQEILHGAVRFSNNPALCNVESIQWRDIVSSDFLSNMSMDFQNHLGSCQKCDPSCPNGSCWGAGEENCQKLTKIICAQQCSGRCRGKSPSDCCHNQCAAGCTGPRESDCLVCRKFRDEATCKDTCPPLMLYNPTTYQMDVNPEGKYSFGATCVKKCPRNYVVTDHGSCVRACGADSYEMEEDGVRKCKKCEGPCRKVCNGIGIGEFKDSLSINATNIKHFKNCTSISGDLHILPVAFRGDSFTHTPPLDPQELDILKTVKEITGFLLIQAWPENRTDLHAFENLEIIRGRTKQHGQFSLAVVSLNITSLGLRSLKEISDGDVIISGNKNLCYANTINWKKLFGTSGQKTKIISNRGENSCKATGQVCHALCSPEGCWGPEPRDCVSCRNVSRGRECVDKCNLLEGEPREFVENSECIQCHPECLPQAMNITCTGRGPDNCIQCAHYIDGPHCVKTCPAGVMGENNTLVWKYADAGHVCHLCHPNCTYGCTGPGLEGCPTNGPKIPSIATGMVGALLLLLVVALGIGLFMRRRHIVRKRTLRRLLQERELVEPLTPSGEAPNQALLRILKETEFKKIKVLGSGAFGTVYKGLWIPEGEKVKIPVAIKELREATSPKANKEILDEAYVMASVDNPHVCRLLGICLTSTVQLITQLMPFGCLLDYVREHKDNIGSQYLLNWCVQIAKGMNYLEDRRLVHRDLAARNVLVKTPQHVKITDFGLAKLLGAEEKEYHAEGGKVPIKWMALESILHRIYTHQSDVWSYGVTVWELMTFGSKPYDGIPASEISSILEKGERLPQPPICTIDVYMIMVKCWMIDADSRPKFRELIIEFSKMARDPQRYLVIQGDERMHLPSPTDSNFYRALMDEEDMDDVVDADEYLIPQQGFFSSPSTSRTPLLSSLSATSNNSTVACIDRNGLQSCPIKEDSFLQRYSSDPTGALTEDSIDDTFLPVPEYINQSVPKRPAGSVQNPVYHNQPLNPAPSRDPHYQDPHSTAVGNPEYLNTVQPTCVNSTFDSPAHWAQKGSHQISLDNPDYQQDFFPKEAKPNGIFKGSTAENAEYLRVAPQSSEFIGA

IC50 [1] | IC50 [2] | IC50 [3] | IC50 [4] | Structure (SMILES)
100 to 1000 nM | < 100 nM | < 100 nM | < 100 nM | COc1c(Cl)cccc1Nc1c(-c2ccnc3ccc(OCC4(F)CC4)nc23)[nH]c2c1C(=O)NCC2 [compound 759, 3-[(3-chloro-2-methoxyphenyl)amino]-2-[6-[(1-fluorocyclopropyl)methoxy]-1,5-naphthyridin-4-yl]-1H,5H,6H,7H-pyrrolo[3,2-c]pyridin-4-one]
< 100 nM | < 100 nM | < 100 nM | < 100 nM | COc1c(Cl)cccc1Nc1c(-c2ccnc3ccc(OC(C)C)nc23)[nH]c2c1C(=O)NCC2 [compound 762, 3-[(3-chloro-2-methoxyphenyl)amino]-2-(6-isopropoxy-1,5-naphthyridin-4-yl)-1H,5H,6H,7H-pyrrolo[3,2-c]pyridin-4-one]
> 1000 nM | > 1000 nM | > 1000 nM | > 1000 nM | C=CC[C@H]1CNC(=O)c2c1[nH]c(-c1ccncc1F)c2Nc1cccc(Cl)c1OC [compound 811]
> 1000 nM | 100 to 1000 nM | 100 to 1000 nM | 100 to 1000 nM | COc1c(Cl)cccc1Nc1c(-c2ccncc2F)[nH]c2c1C(=O)NC[C@H]2CCF [compound 812]
> 1000 nM | 100 to 1000 nM | 100 to 1000 nM | 100 to 1000 nM | COc1c(Cl)cccc1Nc1c(-c2ccncc2F)[nH]c2c1C(=O)NC[C@@H]2CCF [compound 813]
< 100 nM | < 100 nM | < 100 nM | < 100 nM | COc1cnc2c(-c3[nH]c4c(c3Nc3cccc(Cl)c3OC)C(=O)NCC4)ccnc2c1 [compound 814]
> 1000 nM | 100 to 1000 nM | 100 to 1000 nM | 100 to 1000 nM | COc1c(Cl)cccc1Nc1c(-c2ccncc2F)[nH]c2c1C(=O)NC[C@]21CCN(C)C1 [compound 815]
> 1000 nM | 100 to 1000 nM | 100 to 1000 nM | 100 to 1000 nM | COc1c(Cl)cccc1Nc1c(-c2ccncc2F)[nH]c2c1C(=O)NC[C@@]21CCN(C)C1 [compound 816]
> 1000 nM | 100 to 1000 nM | 100 to 1000 nM | 100 to 1000 nM | COc1c(Cl)cccc1Nc1c(-c2ccncc2F)[nH]c2c1C(=O)NC[C@]21CCN(CC(F)(F)F)C1 [compound 818]
> 1000 nM | 100 to 1000 nM | 100 to 1000 nM | 100 to 1000 nM | COCC[C@H]1CNC(=O)c2c1[nH]c(-c1ccncc1F)c2Nc1cccc(F)c1C [compound 824]

Continued, molecule first:

Structure (SMILES) | IC50 [1] | IC50 [2] | IC50 [3] | IC50 [4]
COc1c(Cl)cccc1Nc1c(-c2ccnc(Nc3cnn(C(C)C)c3)n2)[nH]c2c1C(=O)NCC2 [compound 516, 3-[(3-chloro-2-methoxyphenyl)amino]-2-{2-[(1-isopropylpyrazol-4-yl)amino]pyrimidin-4-yl}-1H,5H,6H,7H-pyrrolo[3,2-c]pyridin-4-one] | 100 to 1000 nM | < 100 nM | < 100 nM | < 100 nM
COc1c(Cl)cccc1Nc1c(-c2ccnc(Nc3cnn(C4CCOCC4)c3)n2)[nH]c2c1C(=O)NCC2 [compound 517, 3-[(3-chloro-2-methoxyphenyl)amino]-2-(2-{[1-(oxan-4-yl)pyrazol-4-yl]amino}pyrimidin-4-yl)-1H,5H,6H,7H-pyrrolo[3,2-c]pyridin-4-one] | 100 to 1000 nM | < 100 nM | < 100 nM | 100 to 1000 nM
COc1c(Cl)cccc1Nc1c(-c2ccnc(Nc3ccc(N4CCN(C)CC4)nc3)n2)[nH]c2c1C(=O)NCC2 [compound 518, 3-[(3-chloro-2-methoxyphenyl)amino]-2-(2-{[6-(4-methylpiperazin-1-yl)pyridin-3-yl]amino}pyrimidin-4-yl)-1H,5H,6H,7H-pyrrolo[3,2-c]pyridin-4-one] | 100 to 1000 nM | < 100 nM | < 100 nM | < 100 nM
C=CC(=O)N1CC[C@]2(CNC(=O)c3c2[nH]c(-c2ccncc2F)c3Nc2cccc(Cl)c2OC)C1 [compound 520] | 100 to 1000 nM | 100 to 1000 nM | 100 to 1000 nM | < 100 nM
C=CC(=O)N1CC[C@@]2(CNC(=O)c3c2[nH]c(-c2ccncc2F)c3Nc2cccc(Cl)c2OC)C1 [compound 521] | > 1000 nM | 100 to 1000 nM | 100 to 1000 nM | 100 to 1000 nM
COc1c(Cl)cccc1Nc1c(-c2ccnc(-c3ccn(C)n3)n2)[nH]c2c1C(=O)NCC2 [compound 544, 3-[(3-chloro-2-methoxyphenyl)amino]-2-[2-(1-methylpyrazol-3-yl)pyrimidin-4-yl]-1H,5H,6H,7H-pyrrolo[3,2-c]pyridin-4-one] | > 1000 nM | 100 to 1000 nM | 100 to 1000 nM | 100 to 1000 nM
COc1c(Cl)cccc1Nc1c(-c2ccnc3ccc(OC4CC4)nc23)[nH]c2c1C(=O)NCC2 [compound 677, 3-[(3-chloro-2-methoxyphenyl)amino]-2-(6-cyclopropoxy-1,5-naphthyridin-4-yl)-1H,5H,6H,7H-pyrrolo[3,2-c]pyridin-4-one] | < 100 nM | < 100 nM | < 100 nM | < 100 nM
COc1c(Cl)cccc1Nc1c(-c2ccnc(NC3CCOCC3)n2)[nH]c2c1C(=O)NCC2 [compound 708, 3-((3-chloro-2-methoxyphenyl)amino)-2-(2-((tetrahydro-2H-pyran-4-yl)amino)pyrimidin-4-yl)-1,5,6,7-tetrahydro-4H-pyrrolo[3,2-c]pyridin-4-one] | > 1000 nM | > 1000 nM | > 1000 nM | > 1000 nM
COc1c(Cl)cccc1Nc1c(-c2ccnc(NC[C@H]3CCO3)n2)[nH]c2c1C(=O)NCC2 [compound 720] | > 1000 nM | > 1000 nM | > 1000 nM | > 1000 nM
COc1c(Cl)cccc1Nc1c(-c2ccnc(NC[C@H]3COCCO3)n2)[nH]c2c1C(=O)NCC2 [compound 723, 3-[(3-chloro-2-methoxyphenyl)amino]-2-(2-[[(2S)-1,4-dioxan-2-ylmethyl]amino]pyrimidin-4-yl)-1H,5H,6H,7H-pyrrolo[3,2-c]pyridin-4-one] | > 1000 nM | 100 to 1000 nM | > 1000 nM | > 1000 nM
COc1c(Cl)cccc1Nc1c(-c2ccnc(NC[C@@H]3COCCO3)n2)[nH]c2c1C(=O)NCC2 [compound 724, 3-[(3-chloro-2-methoxyphenyl)amino]-2-[2-[(1,4-dioxan-2-ylmethyl)amino]pyrimidin-4-yl]-1H,5H,6H,7H-pyrrolo[3,2-c]pyridin-4-one] | > 1000 nM | 100 to 1000 nM | 100 to 1000 nM | > 1000 nM
COc1c(Cl)cccc1Nc1c(-c2ccnc3[nH]c(=O)c(OC)nc23)[nH]c2c1C(=O)NCC2 [compound 729, 8-(3-((3-chloro-2-methoxyphenyl)amino)-4-oxo-4,5,6,7-tetrahydro-1H-pyrrolo[3,2-c]pyridin-2-yl)-2-methoxypyrido[2,3-b]pyrazin-3 (4H)-one] | 100 to 1000 nM | 100 to 1000 nM | < 100 nM | 100 to 1000 nM
COc1c(Cl)cccc1Nc1c(-c2ccnc3ccc(OC4CCOCC4)nc23)[nH]c2c1C(=O)NCC2 [compound 740, 3-[(3-chloro-2-methoxyphenyl)amino]-2-[6-(oxan-4-yloxy)-1,5-naphthyridin-4-yl]-1H,5H,6H,7H-pyrrolo[3,2-c]pyridin-4-one] | < 100 nM | < 100 nM | < 100 nM | < 100 nM
COc1c(Cl)cccc1Nc1c(-c2ccnc3ccc(C4CC4)nc23)[nH]c2c1C(=O)NCC2 [compound 752, 3-[(3-chloro-2-methoxyphenyl)amino]-2-(6-cyclopropyl-1,5-naphthyridin-4-yl)-1H,5H,6H,7H-pyrrolo[3,2-c]pyridin-4-one] | < 100 nM | < 100 nM | < 100 nM | < 100 nM
COc1c(Cl)cccc1Nc1c(-c2ccnc3ccc(OCC4CC4)nc23)[nH]c2c1C(=O)NCC2 [compound 755, 3-[(3-chloro-2-methoxyphenyl)amino]-2-[6-(cyclopropylmethoxy)-1,5-naphthyridin-4-yl]-1H,5H,6H,7H-pyrrolo[3,2-c]pyridin-4-one] | 100 to 1000 nM | < 100 nM | < 100 nM | < 100 nM
COc1c(Cl)cccc1Nc1c(-c2ccnc3ccc(OCC4CCC4)nc23)[nH]c2c1C(=O)NCC2 [compound 756, 3-[(3-chloro-2-methoxyphenyl)amino]-2-[6-(cyclobutylmethoxy)-1,5-naphthyridin-4-yl]-1H,5H,6H,7H-pyrrolo[3,2-c]pyridin-4-one] | 100 to 1000 nM | < 100 nM | 100 to 1000 nM | 100 to 1000 nM
COc1c(Cl)cccc1Nc1c(-c2ccnc3ccc(OC4CCC4)nc23)[nH]c2c1C(=O)NCC2 [compound 768, 3-[(3-chloro-2-methoxyphenyl)amino]-2-(6-cyclobutoxy-1,5-naphthyridin-4-yl)-1H,5H,6H,7H-pyrrolo[3,2-c] pyridin-4-one] | 100 to 1000 nM | < 100 nM | < 100 nM | < 100 nM

From patent US20240101576A1, “HETEROCYCLIC INHIBITORS OF EGFR AND/OR HER2, FOR USE IN THE TREATMENT OF CANCER” (Scorpion Therapeutics, Inc., priority 2020, published 2024)
